We go through five molecules from a compilation of properties of binary mixtures.

This data set can be described thus: xn = mol fraction of the nth substance listed.

SMILES strings stand for the structures.

The term viscosity denotes the internal friction of a fluid under shear. High values mean sluggish flow, low ones easy flow. For `CC[n+]1ccn(C)c1.CS(=O)(=O)[O-]` + O, the viscosity is 88.7 mPa·s (283.15 K, 102.2 kPa, x1 = 0.75); 69 mPa·s (288.15 K, 102.2 kPa, x1 = 0.75); 53.3 mPa·s (293.15 K, 102.2 kPa, x1 = 0.75); 28.4 mPa·s (308.15 K, 102.2 kPa, x1 = 0.75); 20.6 mPa·s (318.15 K, 102.2 kPa, x1 = 0.75); 17.9 mPa·s (323.15 K, 102.2 kPa, x1 = 0.75). This molecule registered a viscosity (333.15 K, 102.2 kPa, x1 = 0.75) of 14 mPa·s.

As to `CCCC[P+](CCCC)(CCCC)CCCC.[Cl-]` + O, under “313.15 K, 101 kPa, x1 = 0.0438”, the viscosity amounted to 2.533 mPa·s.

The molecule `CCCCCC[n+]1ccn(C)c1.[Br-]` + O came in with a viscosity (298.15 K, 100 kPa, x2 = 0.9487) of 2.88 mPa·s.

In the case of `CCCCCCCCn1cc[n+](C)c1C.F[P-](F)(F)(F)(F)F` + CCCCCCCC[n+]1ccn(C)c1.F[P-](F)(F)(F)(F)F, the viscosity is, setting by setting: (303.15 K, 100 kPa, x2 = 0.5) 440 mPa·s; (313.15 K, 100 kPa, x2 = 0.5) 241 mPa·s; (323.15 K, 100 kPa, x2 = 0.5) 144 mPa·s.

`CC[N+](CC)(CC)CC.[Cl-]` + OCC(O)CO returned a viscosity (318.15 K, 100 kPa, x1 = 0.333) of 94.1 mPa·s.
